Measurements taken from paper PMC13330650 (Matrix biology : journal of the International Society for …, 2025).
Residue numbers refer to the chain shown, from its start.

How the values were obtained:
UGDH S316D [1] = biological target: T1, UGDH S316D (Homo sapiens, UniProt O60701, S316D); test: isothermal titration calorimetry, UDP-Xylose binding to UGDH S316D; details: ITC
T1 construct: six-histidine; made in house; host or cells: E. coli BL21(DE3)
T1 sequence (O60701 1-494 S316D): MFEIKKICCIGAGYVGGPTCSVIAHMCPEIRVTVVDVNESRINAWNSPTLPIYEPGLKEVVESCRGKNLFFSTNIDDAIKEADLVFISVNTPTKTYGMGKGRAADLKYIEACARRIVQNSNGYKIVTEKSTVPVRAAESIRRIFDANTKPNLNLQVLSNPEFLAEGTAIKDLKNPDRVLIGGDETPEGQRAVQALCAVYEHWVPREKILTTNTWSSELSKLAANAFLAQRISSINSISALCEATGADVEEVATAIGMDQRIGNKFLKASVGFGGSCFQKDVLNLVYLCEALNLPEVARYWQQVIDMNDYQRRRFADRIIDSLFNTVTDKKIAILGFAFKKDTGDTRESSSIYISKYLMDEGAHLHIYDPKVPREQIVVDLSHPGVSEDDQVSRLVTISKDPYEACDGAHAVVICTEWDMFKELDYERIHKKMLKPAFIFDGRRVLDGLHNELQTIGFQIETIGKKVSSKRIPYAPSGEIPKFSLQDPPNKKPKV
Text: (§1) Finally, we tested whether the S316 point mutants impacted inhibition of UGDH by UDP-xylose (UDP-Xyl), which is an endogenous competitive inhibitor of UGDH with nM affinity that causes a conformational change in the crystal structure exposing one of the dimer interfaces. We measured the concentration dependence of UDP-Xyl inhibition in the context of the catalytic reaction at sub-saturating UDP-Glc and NAD^+ and used the resultant curves to calculate the IC50 for UGDH S316A and S316D (Table 1). […] Binding of UDP-Xyl to UGDH independently of catalysis was measured by ITC. […]
(§2) Purified S316 mutants were compared to the UGDH WT enzyme using the following approaches as previously described. Enzymatic activity was evaluated by steady state kinetics in the presence and absence of the endogenous inhibitor UDP-Xylose to compare Michaelis constants and IC50 values. Intrinsic stability was assessed by thermal denaturation and quaternary structure was determined by size exclusion chromatography. Binding of UDP-Xylose to recombinant UGDH and mutants was measured by isothermal titration calorimetry using the MicroCal PEAQ-ITC (Malvern Panalytical). […] Binding heats were corrected for the heat of dilution and analyzed using the MicroCal PEAQ-ITC Analysis Software, employing a single-site binding model to determine Kd values.

UGDH S316A [2] = biological target: T2, UGDH S316A (Homo sapiens, UniProt O60701, S316A); test: UDP-Xyl inhibition of the catalytic reaction, UGDH S316A; assay type: biochemical; details: sub-saturating UDP-Glc and NAD+, read-out: UDP-Xylose IC50
T2 construct: six-histidine; made in house; host or cells: E. coli BL21(DE3)
T2 sequence (O60701 1-494 S316A): T1 sequence (O60701 1-494 S316D) with D316A
Text: as §1, §2

[3] = biological target: T3, UGDH S316 phosphorylation by RSK2, S6K1, SGK1 (Homo sapiens, UniProt O60701); test: in vitro kinase assay, phosphorylation of UGDH S316; assay type: biochemical; details: in vitro kinase assays with RSK2, S6K1, SGK1; data not shown
T3 construct: made in house
T3 sequence (O60701 1-494): T1 sequence (O60701 1-494 S316D) with D316S
Protocol: Due to the location of UGDH S316 at the dimeric interface, we tested whether UGDH oligomeric status influenced the ability of each kinase to phosphorylate UGDH S316. In vitro kinase assays were performed to compare phosphorylation of UGDH S316 in the WT enzyme versus the UGDH T325D obligate dimer mutant. All three kinases produced a phosphorylation band in the dimeric UGDH T325D as expected.
Recombinant UGDH (100 μg) was incubated for 2 h at 30 °C with 1 μg of each kinase and either activated by addition of ATP (200 μM) or a conjugatable ATP analogue, γ-[(6-Azidohexyl)-imido]-ATP. Phosphorylated UGDH was detected by western analysis (using anti-pAkT substrate antibody) or by SDS-PAGE following reaction with tetramethylrhodamine (TAMRA) alkyne, copper, THPTA, and sodium ascorbate.

UGDH S316A [4] = biological target: T2, UGDH S316A; test: isothermal titration calorimetry, UDP-Xylose binding to UGDH S316A; details: ITC, single-site binding model
Text: as §1, §2

UGDH WT [5] = biological target: T4, UGDH WT (Homo sapiens, UniProt O60701); test: UDP-Xyl inhibition of the catalytic reaction, UGDH WT; assay type: biochemical; details: sub-saturating UDP-Glc and NAD+, read-out: UDP-Xylose IC50
T4 construct: six-histidine; made in house; host or cells: E. coli BL21(DE3)
T4 sequence (O60701 1-494): T1 sequence (O60701 1-494 S316D) with D316S
Text: as §1, §2

UGDH S316D [6] = biological target: T1, UGDH S316D; test: UDP-Xyl inhibition of the catalytic reaction, UGDH S316D; assay type: biochemical; details: sub-saturating UDP-Glc and NAD+, read-out: UDP-Xylose IC50
Text: as §1, §2

UGDH WT [7] = biological target: T4, UGDH WT; test: isothermal titration calorimetry, UDP-Xylose binding to UGDH WT; details: ITC, single-site binding model
Text: as §1, §2

Kd for UGDH S316D relative to Kd values for UGDH WT and S316A (UGDH S316D [1]; higher for S316D): ≈ 2 fold | Kd (UGDH S316D [1]; UGDH S316D, single-site binding model): 0.15 ± 0.03 µM | IC50 (UGDH S316A [2]): 0.25 ± 0.06 µM | effect of UDP-Xyl on phosphorylation of UGDH S316 [3]: did not impact phosphorylation | Kd (UGDH S316A [4]): 0.071 ± 0.02 µM | IC50 (UGDH WT [5]): 0.22 ± 0.05 µM | IC50 (UGDH S316D [6]): 0.25 ± 0.03 µM | Kd (UGDH WT [7]): 0.091 ± 0.035 µM
SMILES: O=c1ccn([C@@H]2O[C@H](COP(=O)(O)OP(=O)(O)O[C@H]3OC[C@@H](O)[C@H](O)[C@H]3O)[C@@H](O)[C@H]2O)c(=O)[nH]1 [UDP-Xylose]
